From US5545625A, “Preventing conversion of citrulline to argininosuccinate to limit pathological nitric oxide overproduction” (The Medical College of Wisconsin Research Foundation, Inc., priority 1994, dated 1996)

What was measured:
[1] = system: patient with Gram negative septicemia; test: Blood pressure in septicemia patient given N^G -methyl-L-arginine plus test agent (Examples X, XVI); assay type: in vivo, human; conditions: N^G -methyl-L-arginine 20 mg/kg bolus then 10 mg/kg/hr, plus mithramycin 25 μg/kg intravenously over 3-6 hours
Method: A patient with Gram negative septicemia and blood pressure of 80/55 mm Hg is administered N^G -methyl-L-arginine in a bolus dose of 20 mg/kg intravenously in saline and thereafter is given a sustained infusion of N^G -methyl-L-arginine at a dosage of 10 mg/kg/hr. Mithramycin (25 μg/kg) is given intravenously in 50 ml saline over 3-6 hours starting at the time of the bolus dose of N^G -methyl-L-arginine. […] The patient is released after 2 days.
A patient with a Gram negative septicemia and blood pressure of 80/55 mm Hg is administered N^G -methyl-L-arginine in a bolus dose of 20 mg/kg intravenously in saline and thereafter is given a sustained infusion of N^G -methyl-L-arginine at a dose of 10 mg/kg/hr. N^ω -Methyl-L-citrulline (40 mg/kg) is given intravenously in 50 ml saline over 3-6 hours starting at the time of the bolus dose of N^G -methyl-L-arginine.

[2] = system: argininosuccinate synthetase; test: Argininosuccinate synthetase (AS) activity of rat aortic smooth muscle cells induced with LPS/interferon-gamma in presence of test agent (Example I); assay type: cell-based; conditions: mithramycin 0.001 to 10 μg/ml with LPS 30 μg/ml plus interferon-gamma 50 ng/ml, 24 hours; FIG. 1
Method: Aortic smooth muscle cells were cultured by explanting segments of the medial layer of aortae from adult male Fischer 344 rats. Aortae were removed aseptically and freed of adventitial and endothelial cells by scraping both the lumenal and abluminal surfaces. Medial fragments (1-2 mm) were allowed to attach to dry Primaria 25 cm^2 tissue culture flasks (Falcon; Oxnard, Calif.) which were kept moist with growth medium until cells emerged. Cultures were fed twice weekly with medium 199 containing 10% fetal bovine serum, 25 mM HEPES, 2 mM L-glutamine, 40 μg/ml endothelial cell growth supplement (Biomedical Technologies; Stoughton, Mass.) and 10 μg/ml gentamycin (GIBCO; Grand Island, N.Y.). When primary cultures became confluent, they were passaged by trypsinization and the explants were discarded. Cells in passage 10-15 were seeded at 20,000/well in 96-well plates. […]
Argininosuccinate synthetase activity was assayed based on the conversion of [^14 C]aspartate to [^14 C]argininosuccinate, as described in O'Brien, W. E., Biochemistry 18, 5353-5356, 1979, with the exception that aspartate was present at a concentration of 30 μm (0.021 μCi/nmol). […] Reactions were allowed to proceed for 90 minutes at 37° C before termination and quantification of the [^14 C]argininosuccinate formed, using ion exchange chromatography on Dowex 1-X8 (200-400 mesh, Bio-Rad).

[3] = system: argininosuccinate synthetase mRNA; test: RT-PCR of argininosuccinate synthetase mRNA in induced rat aortic smooth muscle cells (Example III); assay type: cell-based; conditions: LPS 30 μg/ml plus interferon-gamma 50 ng/ml with mithramycin, 6 hours; FIG. 3
Method: Rat aortic smooth muscle cells were grown as described in Example I and were treated with 30 μg/ml bacterial lipopolysaccharide in combination with 50 ng/ml interferon-gamma. […] RNA was extracted by a modified guanidinium isothiocyanate method (RNAzol; Cinna/Biotecz, Houston, Tex.). Reverse transcriptase-polymerase chain reaction was performed by standard methods using 1 μg of total RNA. This was followed by polymerase chain reaction amplification using synthetic gene-specific primers for rat argininosuccinate synthetase as described in Amaya, Y., et al, J. Biochem. (Tokyo) 103, 177-181 (1988), for argininosuccinate lyase as described in Surh, L. C., et al, Nucleic Acids Research, 16, 9352 (1988) and murine-inducible nitric oxide synthase as described in Lyons, C. R., et al, J. Biol. Chem. 267, 6370-6374 (1992). The primers are specifically described in Hattori, Y., et al, J. Biol. Chem. 269, 9405-9408 (1994). Polymerase chain reaction amplification was performed according to the following schedule: denaturation, annealing, and elongation at 95, 55 and 72° C. for 30 sec, 30 sec and 1 min, respectively, for 30 cycles. […] Polymerase chain reaction products were electrophoresed on a 1.5% agarose gel containing ethidium bromide and visualized by UV-induced fluorescence. […]

Compound: COC(C(=O)C(O)C(C)O)C1Cc2cc3cc(OC4CC(OC5CC(O)C(O)C(C)O5)C(O)C(C)O4)c(C)c(O)c3c(O)c2C(=O)C1OC1CC(OC2CC(OC3CC(C)(O)C(O)C(C)O3)C(O)C(C)O2)C(O)C(C)O1 (stereo not drawn) [mithramycin]
- blood pressure [1]: becomes normotensive within minutes of administration of the bolus dose of N^G -methyl-L-arginine and the normotensive state is sustained
- argininosuccinate synthetase activity [2]: as a function of its concentration blocks argininosuccinate synthetase activity
- gene transcription of argininosuccinate synthetase (mRNA level) [3]: inhibits gene transcription of argininosuccinate synthetase
